ChEMBL document CHEMBL3421587, “Discovery of novel small-molecule antagonists for GluK2” (Bioorg Med Chem Lett, 2015)
Active and inactive are the calls of the source. No cut-off for these calls is given here.

Tests used:
Type in all cases: cell-based
[1] = biological target: Glutamate receptor ionotropic, kainate 2 (Homo sapiens) (UniProt Q13002); test: Antagonist activity at GluK2 (unknown origin) transfected in HEK293 cells assessed as inhibition of L-glutamate-induced peak current responses at 1 mM compound added in background solution by electrophysiological analysis relative to control
Sequence of Glutamate receptor ionotropic, kainate 2 (Homo sapiens) (Q13002 whole entry): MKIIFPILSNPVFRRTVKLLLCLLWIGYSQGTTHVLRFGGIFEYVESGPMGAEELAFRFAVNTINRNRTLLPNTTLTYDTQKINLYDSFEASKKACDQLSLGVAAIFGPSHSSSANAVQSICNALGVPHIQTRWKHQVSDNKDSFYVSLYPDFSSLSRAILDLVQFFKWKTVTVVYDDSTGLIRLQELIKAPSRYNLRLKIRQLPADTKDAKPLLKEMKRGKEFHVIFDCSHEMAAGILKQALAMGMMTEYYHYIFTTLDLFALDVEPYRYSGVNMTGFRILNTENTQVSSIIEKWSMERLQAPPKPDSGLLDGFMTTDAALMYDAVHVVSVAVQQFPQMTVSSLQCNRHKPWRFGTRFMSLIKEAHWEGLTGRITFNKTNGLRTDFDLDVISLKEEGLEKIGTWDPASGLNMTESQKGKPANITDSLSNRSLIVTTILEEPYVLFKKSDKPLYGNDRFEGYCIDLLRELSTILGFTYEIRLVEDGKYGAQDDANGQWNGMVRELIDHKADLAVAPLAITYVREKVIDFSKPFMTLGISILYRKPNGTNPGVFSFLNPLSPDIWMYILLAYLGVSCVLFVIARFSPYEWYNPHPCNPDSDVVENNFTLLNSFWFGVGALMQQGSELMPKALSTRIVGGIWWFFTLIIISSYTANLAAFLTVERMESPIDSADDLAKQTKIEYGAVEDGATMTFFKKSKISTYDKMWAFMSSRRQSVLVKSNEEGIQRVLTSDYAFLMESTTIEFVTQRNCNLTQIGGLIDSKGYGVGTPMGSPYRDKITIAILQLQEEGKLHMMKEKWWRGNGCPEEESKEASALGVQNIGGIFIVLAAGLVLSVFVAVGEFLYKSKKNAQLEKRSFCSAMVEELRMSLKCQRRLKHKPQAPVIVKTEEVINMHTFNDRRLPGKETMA

[2] = biological target: Glutamate receptor ionotropic, kainate 2 (Homo sapiens) (UniProt Q13002); test: Agonist activity at GluK2 (unknown origin) transfected in HEK293 cells assessed as current responses at 1 mM by electrophysiological analysis
[3] = biological target: Glutamate receptor ionotropic, kainate 2 (Homo sapiens) (UniProt Q13002); test: Antagonist activity at GluK2 (unknown origin) transfected in HEK293 cells assessed as inhibition of L-glutamate-induced peak current response at 1 mM compound added in background and L-glutamate solution by electrophysiological analysis relative to control

Compound | inhibition [1] | Activity [2] | inhibition [3] [%]
C[C@@H](CC(=O)O)[C@H](N)C(=O)O | 38% | inactive | 
CCC[C@@H](CC(=O)O)[C@H](N)C(=O)O | 95% |  | 
N[C@H](C(=O)O)[C@H](CC(=O)O)c1ccccc1 | inactive |  | 

Now from value to compound:

inhibition [1] | Activity [2] | inhibition [3] [%] | Compound
46% | inactive | 53 | CC[C@@H](CC(=O)O)[C@H](N)C(=O)O
inactive |  |  | CC(C)C[C@@H](CC(=O)O)[C@H](N)C(=O)O
